Results reported in patent US12304898B2, “Quinolyl-containing compound and pharmaceutical composition, and use thereof” (PrimeGene (Beijing) Co., Ltd., priority 2019, dated 2025).

Assay: Pharmacokinetic experiment in rats after intragastric administration
Format: in vivo
Conditions: rat, po, female SD rats, 10 mg/kg, plasma
Protocol: The female SD rats were divided into groups, 3 rats in each group, and the example compounds 10, 12, 24, 57, 61, 89, 90, 93, 94, 96 (10 mg/kg) were administered by intragastric administration. Fasting overnight before administration, and the fasting time was from 10 hours before administration to 4 hours after administration. Blood was collected at 0.25, 0.5, 1, 2, 4, 8 and 24 hours after administration. Small animal anesthesia machine was used for isoflurane anesthesia. After that, 0.3 mL of whole blood was collected from the fundus venous plexus and placed in a heparin anticoagulation tube. The sample was centrifuged at 4° C., 4000 rpm, for 5 minutes, and the plasma was transferred to a centrifuge tube, and stored at −80° C. until analysis. The plasma sample was extracted by protein precipitation method, and the extract was processed and analyzed by LC/MS/MS.

| Compound | AUC(0-inf) [ng·h/mL] | Cmax [ng/mL] | Tmax [h] | half-life [h] |
| --- | --- | --- | --- | --- |
| COc1cc2c(Oc3ccc(NC(=O)C4(C(=O)Nc5ccc(F)cc5)CC4)cc3F)ccnc2cc1OCCCCCCSC(C)=O [Example 10, S-(6-((4-(2-fluoro-4-(1-((4-fluorophenyl)aminoformyl)cyclopropane-1-carboxamido)phenoxy)-6-methoxyquinolin-7-yl)oxy)hexyl)-acetylthioester] | 468 | 377 | 0.833 | 1.24 |
| COc1cc2c(Oc3ccc(NC(=O)C4(C(=O)Nc5ccc(F)cc5)CC4)cc3F)ccnc2cc1OC/C=C/CCCCSC(C)=O [Example 24, (E)-S-(7-((4-(2-fluoro-4-(1-((4-fluorophenyl)aminoformyl)cyclopropane-1-carbamoyl)phenoxy)-6-methoxyquinolin-7-yl)oxy)heptyl-5-en-1-yl)acetylthio ester] | 1070 | 430 | 1.33 | 6.69 |
| COc1cc2c(Oc3ccc(NC(=O)C4(C(=O)Nc5ccc(F)cc5)CC4)cc3F)ccnc2cc1OCCCCCNC(=O)CSC(C)=O [Example 57, S-(2-((5-((4-(2-fluoro-4-(1-((4-fluorophenyl)carbamoyl)cyclopropane-1-carboxamido)phenoxy)-6-methoxyquinolin-7-yl)oxy)pentyl)amino)-2-oxo-ethyl)thioacetate] | 2790 | 1590 | 0.33 | 6.42 |
| COc1cc2c(Oc3ccc(NC(=O)C4(C(=O)Nc5ccc(F)cc5)CC4)cc3F)ccnc2cc1OCCCCNC(=O)CSC(C)=O [Example 61] | 175 | 121 | 0.5 | 1.84 |
| COc1cc2c(Oc3ccc(NC(=O)C4(C(=O)Nc5ccc(F)cc5)CC4)cc3F)ccnc2cc1OCCCCCNC(=O)CSC(=O)C(C)(C)C [Example 89, S-(2-((5-((4-(2-fluoro-4-(1-((4-fluorophenyl)carbamoyl)cyclopropane-1-carboxamido)phenoxy)-6-methoxyquinolin-7-yl)oxo)phenyl)amino)-2-oxo-ethyl)2,2-dimethylthiopropionate] | 1650 | 1000 | 0.833 | 5.94 |

Further lines, results first:

| AUC(0-inf) [ng·h/mL] | Cmax [ng/mL] | Tmax [h] | half-life [h] | Compound |
| --- | --- | --- | --- | --- |
| 689 | 852 | 0.333 | 4.25 | CCCCCCCC(=O)SCC(=O)NCCCCCOc1cc2nccc(Oc3ccc(NC(=O)C4(C(=O)Nc5ccc(F)cc5)CC4)cc3F)c2cc1OC [Example 90] |
| 790 | 429 | 0.667 | 5.49 | COc1cc2c(Oc3ccc(NC(=O)C4(C(=O)Nc5ccc(F)cc5)CC4)cc3F)ccnc2cc1OCCCCCNC(=O)CSC(=O)[C@H](N)Cc1cn(C)c2ccccc12 [Example 93, S-(2-((5-((4-(2-fluoro-4-(1-((4-fluorophenyl)carbamoyl)cyclopropane-1-carboxamido)phenoxy)-6-methoxyquinolin-7-yl)oxy)pentyl)amino)-2-oxo-ethyl)-(R)-2-amino-3-(1-methyl-1H-indol-3-yl)thiopropionate benzenesulfonate] |
| 499 | 289 | 0.5 | 6.14 | COc1cc2c(Oc3ccc(NC(=O)C4(C(=O)Nc5ccc(F)cc5)CC4)cc3F)ccnc2cc1OCCCCCNC(=O)CSC(=O)[C@@H](Cc1cn(C)c2ccccc12)NC(C)=O [Example 94, S-(2-((5-((4-(2-Fluoro-4-(1-((4-fluorophenyl)carbamoyl)cyclopropane-1-carboxamido)phenoxy)-6-methoxyquinolin-7-yl)oxy)pentyl)amino)-2-oxo-ethyl)-(R)-2-acetylamino-3-(1-methyl-1H-indol-3-yl)thiopropionate] |
| 1040 | 724 | 0.417 | 6.92 | COc1cc2c(Oc3ccc(NC(=O)C4(C(=O)Nc5ccc(F)cc5)CC4)cc3F)ccnc2cc1OCCCCCNC(=O)CSSC [Example 96, N-(3-fluoro-4-((6-methoxy-7-((5-(2-(methyldisulfanyl)acetylamino)pentyl)oxy)quinolin-4-yl)oxy)phenyl)-N-(4-fluorophenyl)cyclopropyl-1,1-diformamide] |
